# Results as given in patent publication US20230392173A1, “ENGINEERED BIOSYNTHETIC PATHWAY FOR PRODUCTION OF 4-AMINOPHENYLETHYLAMINE BY FERMENTATION” (Zymergen Inc., priority 2020, published 2023).
# Experiments:
# Type in all cases: cell-based
# Saccharomyces cerevisiae = tested on: Saccharomyces cerevisiae
# Method: (§1) FIG. 1: Toxicity impact of 4-APEA across a range of organisms tested in an Enzyscreen system. Various organisms are grown in media that is supplemented with the molecule of interest, and the growth of the organism is monitored over time. Analysis of the growth-time-course data allows determination of toxicity properties of the molecule of interest, such as the Minimal Inhibitory Concentration (MIC), the concentration at which growth is slowed to half (Ki), and the slope at which increased toxicity effects are observed (alpha). For FIG. 1, product toxicity was measured as a function of reduced substrate uptake with increasing product concentration.
# (§2) The term “Ki,” as used herein, refers to the concentration of a chemical (e.g., 4-APEA) at which the maximal growth rate of cells in culture is slowed by half. Cultures of the cells are grown in media supplemented with varying concentrations of a chemical, and the cell growth is monitored over time. Exponential growth curve data at each chemical concentration are used to determine a specific growth rate p using the following equation:
# (§3) where: X=cell concentration X0=cell concentration at time (t)=0 μ=specific growth rate. The maximal growth rate for each chemical concentration is determined (μobs) and the Ki is the chemical concentration at which the maximal growth rate has been slowed to half of the maximal growth rate in the absence of the chemical (μmax). Ki (denoted K1 below) can be determined from the equation:
# (§4) where: CI=concentration of inhibitor KI=inhibition constant—inhibitor concentration where growth rate is half of maximum α=inhibition parameter to fit data μmax=the maximum growth rate of a culture in the absence of a chemical μobs=the maximum growth rate of a culture at a given concentration of a chemical
# (§5) The term “alpha” (“α”), as used herein, refers to the slope at which toxicity effects are observed. Cultures of the cells are grown in media supplemented with increasing concentrations of a chemical, and the cell growth is monitored over time. Alpha can be determined from the equation: […]
# (§6) One obstacle to efficient production of 4-aminophenylethylamine (4-APEA) by fermentation is that 4-APEA is toxic to many host microbes used conventionally for fermentation. FIG. 1 depicts the concentration of 4-APEA at which an organism's growth is slowed by half (Ki) and the slope (alpha) at which toxicity effects are observed over increasing 4-APEA concentrations. A larger Ki and smaller alpha indicate higher tolerance and less susceptibility to inhibition, respectively. […] K. phaffi is expected to perform similarly to K. pastoris as a production host.
# Komagataella phaffi = tested on: Komagataella phaffi
# Method: as §1, §2, §3, §4, §5, §6
# Bacillus licheniformis = tested on: Bacillus licheniformis
# Method: as §1, §2, §3, §4, §5, §6
# Yarrowia lipolytica = tested on: Yarrowia lipolytica
# Method: as §1, §2, §3, §4, §5, §6
smiles,measurement,setting,value
"NCCc1ccc(N)cc1 [Strain 4-APEA, 4-aminophenylethylamine]",toxicity of 4-APEA (growth inhibition),Saccharomyces cerevisiae,substantial toxicity
same,toxicity of 4-APEA (growth inhibition),Komagataella phaffi,better results
same,toxicity of 4-APEA (growth inhibition),Bacillus licheniformis,better results
same,toxicity of 4-APEA (growth inhibition),Yarrowia lipolytica,better results
